Read-outs that look alike come from different tables or passages of the source.
Legend:
[1] = molecular target: T1, Cp149 (truncated form of a HBV core protein) (Hepatitis B virus genotype D subtype ayw, UniProt P03146); assay: Protein based assay: immunoblot analysis of in vitro HBV capsid assembly; format: biochemical; settings: for inhibition at 10 µM: read-out: Protein based assay (% inhibition, 10 μM); for inhibition at 0.1 µM: read-out: Protein based assay (% inhibition), 0.1 μM; for inhibition at 1 µM: read-out: Protein based assay (% inhibition), 1 μM
T1 construct: Cp149 (amino acids 1-149) is a truncated form of a HBV core protein; histidine tag (cleaved yes); made in house; host or cells: Escherichia coli BL21(DE3)
Method: Cp149 (amino acids 1-149) is a truncated form of a HBV core protein. It was expressed in Escherichia coli, and the expressed protein was purified. The recombinant Cp149 was expressed in E. coli BL21(DE3) cells cultured in LB medium at 37° C. When the culture reached an OD600 of 0.7 to 0.8, expression of the culture was induced with 0.5 mM isopropyl-β-d-thiogalactopyranoside and the culture was cooled to 16° C. After 16 hours, the cells were harvested, flash-frozen in liquid nitrogen, and stored at −80° C. To purify Cp149, thawed cells were resuspended in lysis buffer (20 mM Tris-HCl pH 9.0, 200 mM NaCl, 10 mM imidazole, 10 μg per mL DNaseI, 1 mM phenylmethylsulfonyl fluoride), and treated with ultrasonic waves. The supernatant was loaded onto Ni-NTA affinity resin. Proteins were eluted using a 20 mM to 500 mM imidazole gradient dissolved in lysis buffer. After removing the histidine tag with thrombin, the protein was further purified by HiTrap Q anion exchange chromatography (17115401, GE Healthcare).
To determine the effect on in vitro Cp149 assembly, compounds of the present invention were added to the Cp149-containing suspension. The final concentration of Cp149 was 1 mg per mL, and the compounds of the present invention were added at concentrations of 0.1 to 10 μM. The suspension was mixed with reaction buffer (150 mM HEPES, pH 7.5, 15 mM NaCl) added in a 2:1 ratio. In vitro assembly was performed at 37° C. for 1 hour, and HBV capsid was detected by immunoblot analysis using an anti-HBV core antibody (1:2000, B0586, Dako).

HBV DNA = assay: Quantitative PCR for measuring HBV DNA in cells (HBV DNA quantification); format: cell-based
Method: After treating cells with the indicated compounds, HBV DNA secreted into the medium and intracellular HBV DNA were extracted, purified, and quantified by quantitative PCR. To isolate the secreted HBV DNA, the culture medium was recovered and centrifuged at 15,000×g to remove debris. The medium was diluted 1:1 with phosphate-buffered saline (PBS), and 1 M NaOH solution was added to a final concentration of 0.1 M. The mixture was incubated at 37° C. for 1 hour. The protein was denatured by adding 2M Tris-HCl solution (pH 7.5) to a final concentration of 0.2 M and incubating at 98° C. for 5 minutes. The protein precipitation was removed by centrifugation at 15,000×g, and the supernatant was subjected to PCR with HBV DNA primer and probe sets:
Forward: 5′-[…]-3′, Reverse: 5′-[…]-3′, Probe: 5′-[…]-3′.

[2] = read-out: HBV DNA quantification (IC50 μM)
[3] = Hepatitis B virus; read-out: HBV DNA quantification (IC50 μM)
[4] = Hepatitis B virus, read-out: HBV DNA quantification (IC50 μM)
[5] = Hepatitis B virus, read-out: HBV DNA quantification

T1 sequence (P03146 1-149): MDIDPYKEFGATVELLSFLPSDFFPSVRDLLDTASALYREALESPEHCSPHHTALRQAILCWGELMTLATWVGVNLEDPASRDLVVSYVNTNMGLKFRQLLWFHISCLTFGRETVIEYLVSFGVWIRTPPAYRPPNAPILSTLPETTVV

Compound | inhibition at 10 µM [1] [%] | IC50 (HBV DNA; [3]) [µM] | IC50 (HBV DNA; [4]) [µM] | other results
6-(4-aminopiperidin-1-yl)-2-(methylsulfonyl)-N-(3,4,5-trifluorophenyl)pyrimidin-4-amine [Compound 26h] | – | – | – | Protein based assay (% inhibition), 0.1 μM ([1]; compound 0.1 μM): 29%; Protein based assay (% inhibition), 1 μM ([1]; compound 1 μM): 96%; IC50 (HBV DNA; [2]): 0.292 µM
COc1ncccc1C(=O)NCCNc1cc(Nc2ccc(N3CCOCC3)cc2)nc(SC)n1 [Compound 4a, 2-methoxy-N-(2-(2-(methylthio)-6-(4-morpholinophenylamino)pyrimidin-4-ylamino)ethyl)nicotinamide] | 23 | > 10 | – | IC50 [1]: 9800 nM
COc1cncc(C(=O)NCCNc2cc(Nc3ccc(N4CCOCC4)cc3)nc(SC)n2)c1 [Compound 4b, 5-methoxy-N-(2-(2-(methylthio)-6-(4-morpholinophenylamino)pyrimidin-4-ylamino)ethyl)nicotinamide] | 37 | > 10 | – | –
CSc1nc(NCCNC(=O)c2ccc(F)cc2)cc(Nc2ccc(N3CCOCC3)cc2)n1 [Compound 4c, 4-fluoro-N-(2-(2-(methylthio)-6-(4-morpholinophenylamino)pyrimidin-4-ylamino)ethyl)benzamide] | 0 | > 10 | – | –
CSc1nc(NCCNC(=O)c2ccc(Cl)cc2Cl)cc(Nc2ccc(N3CCOCC3)cc2)n1 [Compound 4d, 2,4-dichloro-N-(2-(2-(methylthio)-6-(4-morpholinophenylamino)pyrimidin-4-ylamino)ethyl)benzamide] | 0 | – | > 10 | –
COc1ncccc1C(=O)NCCNc1cc(Nc2ccc(N3CCOCC3)cc2)nc([S+](C)[O-])n1 (stereo not shown) [Compound 5a, 2-methoxy-N-(2-(2-(methylsulfinyl)-6-(4-morpholinophenylamino)pyrimidin-4-ylamino)ethyl)nicotinamide] | 95 | 0.402 | – | IC50 [1]: 5300 nM; inhibition at 0.1 µM [1]: 43%; inhibition at 1 µM [1]: 83%
COc1cncc(C(=O)NCCNc2cc(Nc3ccc(N4CCOCC4)cc3)nc([S+](C)[O-])n2)c1 (stereo not shown) [Compound 5b, 5-methoxy-N-(2-(2-(methylsulfinyl)-6-(4-morpholinophenylamino)pyrimidin-4-ylamino)ethyl)nicotinamide] | 78 | > 10 | – | –
C[S+]([O-])c1nc(NCCNC(=O)c2ccc(F)cc2)cc(Nc2ccc(N3CCOCC3)cc2)n1 (stereo not shown) [Compound 5c, 4-fluoro-N-(2-(2-(methylsulfinyl)-6-(4-morpholinophenylamino)pyrimidin-4-ylamino)ethyl)benzamide] | 0 | > 10 | – | –
C[S+]([O-])c1nc(NCCNC(=O)c2ccc(Cl)cc2Cl)cc(Nc2ccc(N3CCOCC3)cc2)n1 (stereo not shown) [Compound 5d, 2,4-dichloro-N-(2-(2-(methylsulfinyl)-6-(4-morpholinophenylamino)pyrimidin-4-ylamino)ethyl)benzamide] | 0 | – | > 10 | –
COc1ncccc1C(=O)NCCNc1cc(Nc2ccccc2)nc(SC)n1 [Compound 8a, 2-methoxy-N-(2-(2-(methylthio)-6-(phenylamino)pyrimidin-4-ylamino)ethyl)nicotinamide] | 0 | – | – | IC50 (HBV DNA; [5]): > 10 µM
COc1ncccc1C(=O)NCCNc1cc(Nc2ccc(F)cc2)nc(SC)n1 [Compound 8b, N-(2-(6-(4-fluorophenylamino)-2-(methylthio)pyrimidin-4-ylamino)ethyl)-2-methoxynicotinamide] | 74 | – | – | –
COc1ncccc1C(=O)NCCNc1cc(Nc2ccc(Cl)cc2)nc(SC)n1 [Compound 8c, N-(2-(6-(4-chlorophenylamino)-2-(methylthio)pyrimidin-4-ylamino)ethyl)-2-methoxynicotinamide] | 26 | – | – | IC50 (HBV DNA; [5]): > 10 µM
COc1ncccc1C(=O)NCCNc1cc(Nc2ccc(Br)cc2)nc(SC)n1 [Compound 8d, N-(2-(6-(4-bromophenylamino)-2-(methylthio)pyrimidin-4-ylamino)ethyl)-2-methoxynicotinamide] | 76 | – | – | IC50 (HBV DNA; [5]): > 10 µM
COc1ncccc1C(=O)NCCNc1cc(Nc2ccc(I)cc2)nc(SC)n1 [Compound 8e, N-(2-(6-(4-iodophenylamino)-2-(methylthio)pyrimidin-4-ylamino)ethyl)-2-methoxynicotinamide] | 43 | – | – | –
COc1ncccc1C(=O)NCCNc1cc(Nc2ccc(F)c(F)c2)nc(SC)n1 [Compound 8f, N-(2-(6-(3,4-difluorophenylamino)-2-(methylthio)pyrimidin-4-ylamino)ethyl)-2-methoxynicotinamide] | 37 | – | – | IC50 (HBV DNA; [5]): > 10 µM
COc1ncccc1C(=O)NCCNc1cc(Nc2ccc(F)cc2Cl)nc(SC)n1 [Compound 8g, N-(2-(6-(2-chloro-4-fluorophenylamino)-2-(methylthio)pyrimidin-4-ylamino)ethyl)-2-methoxynicotinamide] | 43 | – | – | IC50 (HBV DNA; [5]): > 10 µM
COc1ncccc1C(=O)NCCNc1cc(Nc2ccccc2)nc([S+](C)[O-])n1 (stereo not shown) [Compound 9a, 2-methoxy-N-(2-(2-(methylsulfinyl)-6-(phenylamino)pyrimidin-4-ylamino)ethyl)nicotinamide] | – | – | 0.484 | inhibition at 0.1 µM [1]: 14%; inhibition at 1 µM [1]: 83%
COc1ncccc1C(=O)NCCNc1cc(Nc2ccc(F)cc2)nc([S+](C)[O-])n1 (stereo not shown) [Compound 9b, N-(2-(6-(4-fluorophenylamino)-2-(methylsulfinyl)pyrimidin-4-ylamino)ethyl)-2-methoxynicotinamide] | – | 0.21 | – | inhibition at 0.1 µM [1]: 32%; inhibition at 1 µM [1]: 83%
COc1ncccc1C(=O)NCCNc1cc(Nc2ccc(Cl)cc2)nc([S+](C)[O-])n1 (stereo not shown) [Compound 9c, N-(2-(6-(4-chlorophenylamino)-2-(methylsulfinyl)pyrimidin-4-ylamino)ethyl)-2-methoxynicotinamide] | – | – | 0.299 | inhibition at 0.1 µM [1]: 27%; inhibition at 1 µM [1]: 80%
COc1ncccc1C(=O)NCCNc1cc(Nc2ccc(Br)cc2)nc([S+](C)[O-])n1 (stereo not shown) [Compound 9d, N-(2-(6-(4-bromophenylamino)-2-(methylsulfinyl)pyrimidin-4-ylamino)ethyl)-2-methoxynicotinamide] | – | – | 0.177 | inhibition at 0.1 µM [1]: 27%; inhibition at 1 µM [1]: 82%
COc1ncccc1C(=O)NCCNc1cc(Nc2ccc(I)cc2)nc([S+](C)[O-])n1 (stereo not shown) [Compound 9e, N-(2-(6-(4-iodophenylamino)-2-(methylsulfinyl)pyrimidin-4-ylamino)ethyl)-2-methoxynicotinamide] | 37 | > 10 | – | –
COc1ncccc1C(=O)NCCNc1cc(Nc2ccc(F)c(F)c2)nc([S+](C)[O-])n1 (stereo not shown) [Compound 9f, N-(2-(6-(3,4-difluorophenylamino)-2-(methylsulfinyl)pyrimidin-4-ylamino)ethyl)-2-methoxynicotinamide] | 38 | – | > 10 | –
CS(=O)(=O)c1nc(Nc2ccc(F)c(Cl)c2)cc(N2C[C@H]3C[C@@H]2CN3)n1 [Compound 29a, 6-((1R,4R)-2,5-diazabicyclo[2.2.1]heptan-2-yl)-N-(3-chloro-4-fluorophenyl)-2-(methylsulfonyl)pyrimidin-4-amine] | – | – | 0.15 | –
CS(=O)(=O)c1nc(Nc2ccc(F)c(Cl)c2)cc(N2CC3(CNC3)C2)n1 [Compound 29b, N-(3-chloro-4-fluorophenyl)-2-(methylsulfonyl)-6-(2,6-diazaspiro[3.3]heptan-2-yl)pyrimidin-4-amine] | – | – | 0.235 | –
CS(=O)(=O)c1nc(Nc2ccc(F)c(Cl)c2)cc(N2C[C@@H]3C[C@H]2CN3)n1 [Compound 29c, 6-((1S,4S)-2,5-diazabicyclo[2.2.1]heptan-2-yl)-N-(3-chloro-4-fluorophenyl)-2-(methylsulfonyl)pyrimidin-4-amine] | – | – | 0.428 | –
CS(=O)(=O)c1nc(Nc2ccc(F)c(Cl)c2)cc(N2C[C@@H]3[C@@H](N)[C@@H]3C2)n1 [Compound 29d, (1R,5S,6s)-3-(6-(3-chloro-4-fluorophenylamino)-2-(methylsulfonyl)pyrimidin-4-yl)-3-azabicyclo[3.1.0]hexan-6-amine] | – | – | – | IC50 (HBV DNA; [2]): 0.769 µM

Source: patent publication US20230399320A1, “NOVEL CAPSID ASSEMBLY INHIBITOR” (Pelemed Co., Ltd., priority 2020, published 2023)
